From PMC10660337, “Mutate and Conjugate: A Method to Enable Rapid In-Cell Target Validation” (ACS Chemical Biology, 2023)

Legend:
BRD4(1)^WT = target: T1, BRD4(1)^WT (Homo sapiens, UniProt O60885); test: Fluorescent labeling of purified protein (CuAAC with TAMRA-PEG3-azide, in-gel fluorescence); assay type: binding; details: 50 μM probe, 10 μM protein, 4 h, 37 °C, then CuAAC 1 h
T1 construct: Characterization of His6-BRD4(1)WT; made in house; host or cells: E. coli BL21 (DE3)
Procedure: When 28, 29, 30, and 42 were incubated with either purified BRD4(1)^L94C or BRD4(1)^WT and subjected to a copper(I)-catalyzed alkyne–azide click reaction (CuAAC) reaction with the fluorescent TAMRA-PEG3-azide dye, all clickable probes labeled the mutant protein and could be visualized using fluorescence imaging of a gel (Figure 6).
Figure 6 Clickable probes 28, 29, 30, and 42 covalently label BRD4(1)^L94C and undergo a subsequent CuAAC reaction with TAMRA-PEG3 azide to fluorescently label the protein, as shown by in-gel fluorescence imaging. Compounds 28, 29, 30, 41, and 42 (50 μM) were incubated with purified BRD4(1)^L94C or BRD4(1)^WT (10 μM) for 4 h at 37 °C, followed by CuAAC reaction with TAMRA-PEG3 azide for 1 h and separation of components by SDS-PAGE. For all compounds other than 30, only labeling of BRD4(1)^L94C was observed.
50 mM DMSO stock solutions of the compounds were serially diluted, and dispensed into wells (5 μL).
The protein-peptide mixes (7 μL) for each combination were prepared following the specified final assay concentration (Table S19), and dispensed into wells. […]
Assays were performed in 1.5 mL Eppendorf tubes at room temperature, in the dark, and gently shaken, unless otherwise stated. […] Data was analysed and processed using MassLynx. […]
Gels were imaged for fluorescence using Bio-rad molecular imager and then stained for 15 min with […]

[1] = tested on: T2, StrepII-tagged BRD4(1)^L94C or BRD4(1)^WT in HEK293T cells; test: Immunoprecipitation of StrepII-tagged bromodomains after in-cell labeling; assay type: cell-based, human; details: 10 µM probe, 1 h, anti-StrepII pull-down, in-gel fluorescence
T2 construct: the L94C mutation in the first bromodomain of BRD4 [BRD4(1)]; StrepII; expressed in transfected cells; host or cells: HEK293T
Procedure: Compound engagement with BRD4(1)^L94C was further validated by using an immunoprecipitation (IP) assay (Figure S22). Here, transfected HEK293T cells expressing StrepII-tagged BRD4(1)^L94C or StrepII-tagged BRD4(1)^WT were incubated with compound 42 before being lysed. The StrepII-tagged bromodomains were then pulled down using anti-StrepII antibodies, and the samples were separated by SDS-PAGE for analysis. […]
reaction mix was taken and 8 µL of Lamelli buffer added, and the samples denatured by heating at 95 °C for 10 min. Samples were separated by gel electrophoresis on NuPAGE™ 4–12%, Bis-Tris precast polyacrylamide gels (Thermofisher). Following electrophoresis, gels were stained for 15 min with InstantBlueTM Coomasie® stain (Abcam), destained, and imaged using Bio-rad molecular imager.
Bio-rad Image Lab 6.1 was used to process the data.
In-cell target engagement
In-cell labeling by clickable probes […]
Gels were imaged for fluorescence using Bio-rad molecular imager and then stained for 15 min with InstantBlueTM Coomasie® stain (Abcam), destained, and imaged using Bio-rad molecular imager. […]
Transfected HEK293T cells at ~90% confluency were incubated for 30 min with a DMSO control or varying concentrations of OXFBD04 diluted in Opti-MEM media. […] Cells were then harvested, processed, and analysed using the previously described protocol above. […]

Row | SMILES | Labeling of purified BRD4(1)^WT, in-gel fluorescence (BRD4(1)^WT) | Engagement of StrepII-tagged BRD4(1)^L94C versus BRD4(1)^WT by immunoprecipitation [1]
1 | C#CCOc1ccc(-c2c(C)noc2NC(=O)C=C)cc1 [Compound 30] | low level | –
2 | C#CCOc1cc(NC(=O)C=C)ccc1N1CCCC1=O [Compound 42] | – | selective engagement of BRD4(1)^L94C
